Data on 27 compounds can be found in patent publication US11591355B2 (Peloton Therapeutics, Inc., priority 2017, dated 2023).

Read-outs that look alike come from different tables or passages of the source. A value given as a limit tells only on which side of the number the result lay.

The assay has as its target T1, Human CD73 (Homo sapiens, UniProt P21589).
T1 construct: purchased R&D Systems; host or cells: CHO cells
T1 sequence (P21589 27-549): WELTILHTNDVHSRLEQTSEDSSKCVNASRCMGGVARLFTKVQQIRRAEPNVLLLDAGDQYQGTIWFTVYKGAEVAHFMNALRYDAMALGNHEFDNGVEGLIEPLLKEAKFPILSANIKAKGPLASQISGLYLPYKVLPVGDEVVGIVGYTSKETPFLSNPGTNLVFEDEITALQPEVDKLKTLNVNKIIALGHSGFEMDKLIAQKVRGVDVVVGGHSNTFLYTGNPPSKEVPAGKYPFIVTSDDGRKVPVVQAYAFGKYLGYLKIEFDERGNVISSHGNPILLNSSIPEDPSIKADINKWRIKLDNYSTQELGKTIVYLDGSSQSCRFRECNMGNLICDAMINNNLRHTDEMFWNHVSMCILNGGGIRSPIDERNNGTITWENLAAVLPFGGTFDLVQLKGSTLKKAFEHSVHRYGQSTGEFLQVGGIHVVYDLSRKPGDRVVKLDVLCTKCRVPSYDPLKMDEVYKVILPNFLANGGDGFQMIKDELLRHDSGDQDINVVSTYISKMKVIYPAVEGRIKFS
The assay can be described thus: CD73 Enzyme Assay. Format: biochemical.

[1] abbreviates: 0.25 nM hCD73, 25 μM AMP, kinetic read at 360 nm, read-out: CD73 Enzyme Assay IC50.

Broadly, the IC50 is the concentration at which inhibition is half-maximal. With `O=P(O)(O)COC[C@H]1O[C@@H](n2cnc3c2ncn2ccnc32)[C@H](O)[C@@H]1O` [Compound 38], the IC50 under setting [1] was above 1000 nM. With `O=P(O)(O)COC[C@H]1O[C@@H](n2cnc3c(NCc4ccccn4)ncnc32)[C@H](O)[C@@H]1O` [Compound 19, [(2R,3S,4R,5R)-3,4-dihydroxy-5-[6-(2-pyridylmethylamino)-purin-9-yl]tetrahydro-furan-2-yl]methoxy-methylphosphonic acid], the IC50 under setting [1] was above 1000 nM. The same measure, in the same setting: then `CC(C)(C)Nc1ncnc2c1ncn2[C@@H]1O[C@H](COCP(=O)(O)O)[C@@H](O)[C@H]1O` [Compound 33, [(2R,3S,4R,5R)-5-[6-(tert-butylamino)purin-9-yl]-3,4-dihydroxy-tetrahydrofuran-2-yl]-methoxymethylphos-phonic acid], with above 1000 nM; and `O=P(O)(O)COC[C@H]1O[C@@H](n2cnc3c(-c4ccccc4F)ncnc32)[C@H](O)[C@@H]1O` [Compound 53, [(2R,3S,4R,5R)-5-[6-(2-fluorophenyl)purin-9-yl]-3,4-dihydroxy-tetrahydrofuran-2-yl]methoxymethyl-phosphonic acid], with above 1000 nM. As to `O=P(O)(O)COC[C@H]1O[C@@H](n2cnc3c(NCc4ccccc4)nc(C4CC4)nc32)[C@H](O)[C@@H]1O` [Compound 39, [(2R,3S,4R,5R)-5-[6-(benzylamino)-2-cyclopropyl-purin-9-yl]-3,4-dihydroxy-tetrahydrofuran-2-yl]-methoxymethyl phos-phonic acid], the IC50 under setting [1] is above 1000 nM. On to `O=P(O)(O)COC[C@H]1O[C@@H](n2ccc3c(N[C@H](CO)c4ccccc4)nc(Cl)nc32)[C@H](O)[C@@H]1O` [Compound 217, [(2R,3S,4R,5R)-5-[2-chloro-4-[[(1S)-2-hydroxy-1-phenyl-ethyl]amino]pyrrolo-[2,3-d]pyrimidin-7-yl]-3,4-dihydroxy-tetrahydrofuran-2-yl]methoxymethyl-phosphonic acid], for which the IC50 under setting [1] was 100 to 1000 nM. On the same count and under the same terms, then `CNc1nc(NCc2ccccc2)c2ncn([C@@H]3O[C@H](COCP(=O)(O)O)[C@@H](O)[C@H]3O)c2n1` [Compound 5, [(2R,3S,4R,5R)-5-[6-(benzylamino)-2-(methylamino)purin-9-yl]-3,4-dihydroxy-tetrahydrofuran-2-yl]methoxymethyl-phosphonic acid], with above 1000 nM; and `NCCNc1ncnc2c1ncn2[C@@H]1O[C@H](COCP(=O)(O)O)[C@@H](O)[C@H]1O` [Compound 25, [(2R,3S,4R,5R)-5-[6-(2-aminoethylamino)-purin-9-yl]-3,4-dihydroxy-tetrahydro-furan-2-yl]methoxy-methylphosphonic acid], with above 1000 nM. The same measure, in the same setting: then `O=P(O)(O)COC[C@H]1O[C@@H](n2cnc3c(NCc4ccccc4)nc(-c4cn[nH]c4)nc32)[C@H](O)[C@@H]1O` [Compound 10, [(2R,3S,4R,5R)-5-[6-(benzylamino)-2-(1H-pyrazol-4-yl)purin-9-yl]-3,4-dihydroxy-tetrahydrofuran-2-yl]-methoxymethylphos-phonic acid], with 100 to 1000 nM.

As for `O=P(O)(O)COC[C@H]1O[C@@H](n2cnc3c2ncn2cnnc32)[C@H](O)[C@@H]1O` [Compound 37], the IC50 under setting [1] was above 1000 nM.

Regarding `O=P(O)(O)COC[C@H]1O[C@@H](n2cnc3c(NC4(c5ccccc5)CC4)ncnc32)[C@H](O)[C@@H]1O` [Compound 23], under setting [1], the IC50 was above 1000 nM.

With `N#Cc1ncnc2c1ncn2[C@@H]1O[C@H](COCP(=O)(O)O)[C@@H](O)[C@H]1O` [Compound 47, [(2R,3S,4R,5R)-5-(6-cyanopurin-9-yl)-3,4-dihydroxy-tetrahydro-furan-2-yl]methoxy-methylphosphonic acid], the IC50 under setting [1] was above 1000 nM. On the same count and under the same terms, then `O=P(O)(O)COC[C@H]1O[C@@H](n2cnc3c(NCc4ccccc4)nc(Cc4ccccc4)nc32)[C@H](O)[C@@H]1O` [Compound 22, [(2R,3S,4R,5R)-5-[2-benzyl-6-(benzyl-amino)purin-9-yl]-3,4-dihydroxy-tetrahydro-furan-2-yl]methoxy-methylphosphonic acid], with 100 to 1000 nM. `O=P(O)(COC[C@H]1O[C@@H](n2ccc3c(NC4CCCC4)nc(Cl)nc32)[C@H](O)[C@@H]1O)Oc1cccnc1` [Compound 233, [(2R,3S,4R,5R)-5-[2-chloro-4-(cyclopentyl-amino)pyrrolo[2,3-d]-pyrimidin-7-yl]-3,4-dihydroxy-tetrahydro-furan-2-yl]methoxy-methyl-(3-pyridyloxy)-phosphinic acid] had an IC50 below 10 nM. Consider `O=P(O)(O)CS(=O)(=O)C[C@H]1O[C@@H](n2cnc3c(NCc4ccccc4)ncnc32)[C@H](O)[C@@H]1O` [Compound 148], for which, under “read-out: CD73 Enzyme Assay IC50”, the IC50 is above 1000 nM. For `O=P(O)(O)C(SC[C@H]1O[C@@H](n2cnc3c(NCc4ccccc4)ncnc32)[C@H](O)[C@@H]1O)c1ccccc1` (stereo partly drawn) [Compound 149, [[(2S,3S,5R)-5-[6-(benzylamino)purin-9-yl]-3,4-dihydroxy-tetrahydrofuran-2-yl]methylsulfanyl-phenylmethyl]phos-phonic acid], the IC50 under setting [1] is above 1000 nM. The same measure, in the same setting: then `CCc1nc(NC(C)C)c2ncn([C@@H]3O[C@H](COCP(=O)(O)O)[C@@H](O)[C@H]3O)c2n1` [Compound 41, [(2R,3S,4R,5R)-5-[2-ethyl-6-(isopropyl-amino)purin-9-yl]-3,4-dihydroxy-tetrahydro-furan-2-yl]methoxy-methylphosphonic acid], with above 1000 nM; and `CC(C)OC(=O)OCOP(=O)(COC[C@H]1O[C@@H](n2ccc3c(NC4CCCC4)nc(Cl)nc32)[C@H](O)[C@@H]1O)OCOC(=O)OC(C)C` [Compound 214, [[(2R,3S,4R,5R)-5-[2-chloro-4-(cyclopentyl-amino)pyrrolo[2,3-d]-pyrimidin-7-yl]-3,4-dihydroxy-tetrahydro-furan-2-yl]methoxy-methyl-(isopropoxy-carbonyloxymethoxy)-phosphoryl]oxymethyl-isopropyl carbonate], with above 1000 nM; and `C=Cc1nc(NC(C)C)c2ncn([C@@H]3O[C@H](COCP(=O)(O)O)[C@@H](O)[C@H]3O)c2n1` [Compound 40, [(2R,3S,4R,5R)-3,4-dihydroxy-5-[6-(iso-propylamino)-2-vinyl-purin-9-yl]tetrahydro-furan-2-yl]methoxy-methylphosphonic acid], with 100 to 1000 nM. On the same count and under the same terms, with `CC(C)OP(=O)(O)COC[C@H]1O[C@@H](n2ccc3c(NC4CCCC4)nc(Cl)nc32)[C@H](O)[C@@H]1O` [Compound 224, [(2R,3S,4R,5R)-5-[2-chloro-4-(cyclopentyl-amino)pyrrolo[2,3-d]-pyrimidin-7-yl]-3,4-dihydroxy-tetrahydro-furan-2-yl]methoxy-methyl-isopropoxy-phosphinic acid] the figure was above 1000 nM; with `N#Cc1cccc(CNc2ncnc3c2ncn3[C@@H]2O[C@H](COCP(=O)(O)O)[C@@H](O)[C@H]2O)c1` [Compound 58, [(2R,3S,4R,5R)-5-[6-[(3-cyanophenyl)-methylamino]purin-9-yl]-3,4-dihydroxy-tetrahydrofuran-2-yl]-methoxymethylphos-phonic acid], above 1000 nM. `CC(C)(C)C(=O)OCOP(=O)(C[S+]([O-])C[C@H]1O[C@@H](n2ccc3c(NC4CCCC4)nc(Cl)nc32)[C@H](O)[C@@H]1O)OCOC(=O)C(C)(C)C` (stereo partly drawn) [Compound 166, [[(2S,3S,4R,5R)-5-[2-chloro-4-(cyclopentyl-amino)pyrrolo[2,3-d]-pyrimidin-7-yl]-3,4-dihydroxy-tetrahydro-furan-2-yl]methyl-sulfinylmethyl-(2,2-dimethylpropanoyloxy-methoxy)phosphoryl]-oxymethyl 2,2-dimethylpropanoate]: under setting [1], the IC50 was above 1000 nM.

As for `CS(=O)(=O)c1cccc(CNc2ncnc3c2ncn3[C@@H]2O[C@H](COCP(=O)(O)O)[C@@H](O)[C@H]2O)c1` [Compound 66], under setting [1], the IC50 is above 1000 nM. As for `O=P(O)(O)COC[C@H]1O[C@@H](n2cnc3c(NC4CCCCC4)ncnc32)[C@H](O)[C@@H]1O` [Compound 35, [(2R,3S,4R,5R)-5-[6-(cyclohexylamino)-purin-9-yl]-3,4-dihydroxy-tetrahydro-furan-2-yl]methoxy-methylphosphonic acid], the IC50 under setting [1] lay in the range of 100 to 1000 nM. The same measure, in the same setting: with `CC(C)(C)C(=O)COP(=O)(O)COC[C@H]1O[C@@H](n2ccc3c(NC4CCCC4)nc(Cl)nc32)[C@H](O)[C@@H]1O` [Compound 223, [(2R,3S,4R,5R)-5-[2-chloro-4-(cyclopentyl-amino)pyrrolo[2,3-d]-pyrimidin-7-yl]-3,4-dihydroxy-tetrahydro-furan-2-yl]methoxy-methyl-(3,3-dimethyl-2-oxo-butoxy)phos-phinic acid] the figure was above 1000 nM. On the same count and under the same terms, with `CNc1nc(C#N)nc2c1ccn2[C@@H]1O[C@H](COCP(=O)(O)O)[C@@H](O)[C@H]1O` [Compound 118, [(2R,3S,4R,5R)-5-[2-cyano-4-(methyl-amino)pyrrolo[2,3-d]-pyrimidin-7-yl]-3,4-dihydroxy-tetrahydro-furan-2-yl]methoxy-methylphosphonic acid] the figure was 100 to 1000 nM.

The compound `O=P(COC[C@H]1O[C@@H](n2ccc3c(NC4CCCC4)nc(Cl)nc32)[C@H](O)[C@@H]1O)(Oc1ccc(F)cc1)Oc1ccc(F)cc1` [Compound 227, (2R,3S,4R,5R)-2-[bis (4-fluorophenoxy)-phosphorylmethoxy-methyl]-5-[2-chloro-4-(cyclopentylamino)-pyrrolo[2,3-d]-pyrimidin-7-yl]tetra-hydrofuran-3,4-diol] yielded an IC50 above 1000 nM.
